Test results from the supplement of paper PMC11451515.

How the values were obtained:
Details in all cases: 48 h
SEM cells [1] = assay: cell viability relative to DMSO control; higher = less cytotoxic
Procedure, shortened: (§1)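 Viability is expressed as a percentage of DMSO wells within each plate, and cell-free wells serve as background. Seeding densities in the 1536-well plates (5 μl) were 500 cells/well for NOMO1 or SEM leukemia cells and 1000 cells/well for P12-Ichikawa. Each line was adapted for at least four passages in each medium. Library compounds in DMSO were pin-dosed at 47 μM to 0.79 nM (11 points, threefold), and CellTiter-Glo One luminescence was read after 48 h at 37°C.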

P12-Ichikawa [2] = assay: as above
Procedure, shortened: as §1

NOMO1 [3] = assay: as above
Procedure, shortened: as §1

SEM cells [4] = assay: AUC of viability dose-response curve (% viability x log10 dose units); higher = less sensitive
Procedure, shortened: (§2)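 In 1536-well plates, leukemia cells adapted to each medium (500 or 1000 cells/well) were exposed for 48 h at 37°C to library compounds in DMSO across 11 threefold doses, 47 μM down to 0.79 nM. Viability was read by CellTiter-Glo One luminescence and normalised per plate to DMSO and cell-free wells. A four-parameter log-logistic fit over log10 doses was integrated by trapezoidal rule. This yielded the area under the curve, with over-full-viability curves scaled and quality-control failures dropped.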

P12-Ichikawa [5] = assay: as above
Procedure, shortened: as §2

NOMO1 [6] = assay: as above
Procedure, shortened: as §2

COc1cccc2c1CCCC2CCCN1CCN(C2CCCCC2)CC1 (centres undefined)
cell viability [%]
Details | NOMO1 [3] | P12-Ichikawa [2] | SEM cells [1]
HPLM + 10% dialyzed FBS, 0.000781 µM | 97.9 | 104 | 88.4
HPLM + 10% dialyzed FBS, 0.00234 µM | 105 | 110 | 85
HPLM + 10% dialyzed FBS, 0.00702 µM | 99.9 | 97.7 | 80.9
HPLM + 10% dialyzed FBS, 0.0211 µM | 106 | 112 | 91.1
HPLM + 10% dialyzed FBS, 0.0632 µM | 114 | 106 | 91.6
HPLM + 10% dialyzed FBS, 0.19 µM | 138 | 113 | 110
HPLM + 10% dialyzed FBS, 0.569 µM | 111 | 111 | 96.9
HPLM + 10% dialyzed FBS, 1.71 µM | 105 | 110 | 88.8
HPLM + 10% dialyzed FBS, 5.12 µM | 96.7 | 109 | 97.1
HPLM + 10% dialyzed FBS, 15.4 µM | 99.7 | 103 | 83.5
HPLM + 10% dialyzed FBS, 46.1 µM | 57 | 81.5 | 55.3
RPMI 5 mM glucose + 10% FBS, 0.000781 µM | 102 | 111 | 87.8
RPMI 5 mM glucose + 10% FBS, 0.00234 µM | 107 | 99.9 | 85.6
RPMI 5 mM glucose + 10% FBS, 0.00702 µM | 109 | 117 | 89.9
RPMI 5 mM glucose + 10% FBS, 0.0211 µM | 100 | 114 | 91.1
RPMI 5 mM glucose + 10% FBS, 0.0632 µM | 99.5 | 127 | 101
RPMI 5 mM glucose + 10% FBS, 0.19 µM | 103 | 119 | 107
RPMI 5 mM glucose + 10% FBS, 0.569 µM | 103 | 116 | 103
RPMI 5 mM glucose + 10% FBS, 1.71 µM | 94 | 122 | 97
RPMI 5 mM glucose + 10% FBS, 5.12 µM | 96.2 | 114 | 81.3
RPMI 5 mM glucose + 10% FBS, 15.4 µM | 89.7 | 99.5 | 79.1
RPMI 5 mM glucose + 10% FBS, 46.1 µM | 66.2 | 62.9 | 42.9
RPMI 5 mM glucose + 10% dialyzed FBS, 0.000781 µM | 89.2 | 95.7 | 87.7
RPMI 5 mM glucose + 10% dialyzed FBS, 0.00234 µM | 100 | 102 | 83.3
RPMI 5 mM glucose + 10% dialyzed FBS, 0.00702 µM | 98 | 114 | 97
RPMI 5 mM glucose + 10% dialyzed FBS, 0.0211 µM | 92.7 | 111 | 102
RPMI 5 mM glucose + 10% dialyzed FBS, 0.0632 µM | 93.1 | 116 | 111
RPMI 5 mM glucose + 10% dialyzed FBS, 0.19 µM | 104 | 110 | 114
RPMI 5 mM glucose + 10% dialyzed FBS, 0.569 µM | 92.9 | 111 | 104
RPMI 5 mM glucose + 10% dialyzed FBS, 1.71 µM | 94.8 | 103 | 91
RPMI 5 mM glucose + 10% dialyzed FBS, 5.12 µM | 109 | 105 | 96.7
RPMI 5 mM glucose + 10% dialyzed FBS, 15.4 µM | 87.9 | 93.4 | 87.6
RPMI 5 mM glucose + 10% dialyzed FBS, 46.1 µM | 58 | 66.2 | 52.5

AUC of viability dose-response curve
Details | NOMO1 [6] | P12-Ichikawa [5] | SEM cells [4]
HPLM + 10% dialyzed FBS | 462 | 469 | 427
RPMI 5 mM glucose + 10% FBS | 457 | 459 | 428
RPMI 5 mM glucose + 10% dialyzed FBS | 450 | 460 | 454

CC[C@]1(O)C[C@@H]2CN(CCc3c([nH]c4ccccc34)[C@@](C(=O)OC)(c3cc4c(cc3OC)N(C)[C@H]3[C@@](O)(C(N)=O)[C@H](O)[C@]5(CC)C=CCN6CC[C@]43[C@@H]65)C2)C1
cell viability [%]
Details | NOMO1 [3] | P12-Ichikawa [2] | SEM cells [1]
HPLM + 10% dialyzed FBS, 0.000781 µM | – | 112 | 123
HPLM + 10% dialyzed FBS, 0.00234 µM | – | 109 | 110
HPLM + 10% dialyzed FBS, 0.00702 µM | – | 112 | 114
HPLM + 10% dialyzed FBS, 0.0211 µM | – | 97.5 | 106
HPLM + 10% dialyzed FBS, 0.0632 µM | – | 78.4 | 89.2
HPLM + 10% dialyzed FBS, 0.19 µM | – | 18.3 | 43.2
HPLM + 10% dialyzed FBS, 0.569 µM | – | 20.5 | 26.3
HPLM + 10% dialyzed FBS, 1.71 µM | – | 14.2 | 20.5
HPLM + 10% dialyzed FBS, 5.12 µM | – | 7.56 | 20
HPLM + 10% dialyzed FBS, 15.4 µM | – | 7.86 | 15.7
HPLM + 10% dialyzed FBS, 46.1 µM | – | 9.96 | 6.67
RPMI 5 mM glucose + 10% FBS, 0.000781 µM | 110 | 109 | –
RPMI 5 mM glucose + 10% FBS, 0.00234 µM | 113 | 115 | –
RPMI 5 mM glucose + 10% FBS, 0.00702 µM | 132 | 115 | –
RPMI 5 mM glucose + 10% FBS, 0.0211 µM | 103 | 98.6 | –
RPMI 5 mM glucose + 10% FBS, 0.0632 µM | 96.4 | 65.8 | –
RPMI 5 mM glucose + 10% FBS, 0.19 µM | 25.3 | 16.7 | –
RPMI 5 mM glucose + 10% FBS, 0.569 µM | 21.1 | 22.7 | –
RPMI 5 mM glucose + 10% FBS, 1.71 µM | 25.8 | 14 | –
RPMI 5 mM glucose + 10% FBS, 5.12 µM | 21.4 | 8.37 | –
RPMI 5 mM glucose + 10% FBS, 15.4 µM | 22.8 | 6.73 | –
RPMI 5 mM glucose + 10% FBS, 46.1 µM | 21 | 6.12 | –
RPMI 5 mM glucose + 10% dialyzed FBS, 0.000781 µM | 116 | 111 | 118
RPMI 5 mM glucose + 10% dialyzed FBS, 0.00234 µM | 114 | 103 | 104
RPMI 5 mM glucose + 10% dialyzed FBS, 0.00702 µM | 106 | 106 | 124
RPMI 5 mM glucose + 10% dialyzed FBS, 0.0211 µM | 122 | 104 | 124
RPMI 5 mM glucose + 10% dialyzed FBS, 0.0632 µM | 121 | 101 | 97.8
RPMI 5 mM glucose + 10% dialyzed FBS, 0.19 µM | 44.6 | 34.3 | 44.8
RPMI 5 mM glucose + 10% dialyzed FBS, 0.569 µM | 24.6 | 22.8 | 26.6
RPMI 5 mM glucose + 10% dialyzed FBS, 1.71 µM | 28.2 | 29.1 | 24.3
RPMI 5 mM glucose + 10% dialyzed FBS, 5.12 µM | 24.2 | 13.8 | 20.4
RPMI 5 mM glucose + 10% dialyzed FBS, 15.4 µM | 23.6 | 10.1 | 16.3
RPMI 5 mM glucose + 10% dialyzed FBS, 46.1 µM | 20.7 | 11.5 | 5.01

AUC of viability dose-response curve
Details | NOMO1 [6] | P12-Ichikawa [5] | SEM cells [4]
HPLM + 10% dialyzed FBS | 223 | 231 | 250
RPMI 5 mM glucose + 10% FBS | 259 | 218 | 217
RPMI 5 mM glucose + 10% dialyzed FBS | 278 | 263 | 258
